From patent US9132141B2 (priority 2012, dated 2015)

Key:
influenza = experiment: Survival of influenza-infected TLR2−/− and CD14−/− mice; assay type: in vivo; details: treated 2 days post-infection for 5 successive days
From the text: Normal mice (WT), TLR4^−/−, TLR2^−/−, and CD14^−/− were infected with influenza and then were untreated (closed circles) or treated with eritoran (open circles) 2 days post-infection, for 5 successive days. (FIG. 13a). […] WT data were combined from 5 separate experiments (5-6 mice per treatment per experiment), TLR4^−/− data were combined from 3 separate experiments (5-6 mice per treatment per experiment), CD14^−/− data were combined from 2 separate experiments (4-5 mice per treatment per experiment). WT: untreated vs eritoran (p, 0.0001); TLR4^−/−: untreated vs. eritoran (p=ns); CD14^−/−: untreated vs. eritoran (p=ns); TLR2^−/−: untreated vs. eritoran (p=ns).

TLR4 = molecular target: T1, TLR4 (Mus musculus, UniProt Q9JHF9+Q9QUK6); experiment: OxPAPC-induced IL-6 gene expression in peritoneal macrophages; assay type: cell-based; details: pretreatment 10 ng/mL for 1 hour, OxPAPC 20 μg/mL
T1 construct: endogenous in cells; host or cells: peritoneal macrophages from wild-type C57BL/6J mice
T1 sequence (Q9QUK6 26-835): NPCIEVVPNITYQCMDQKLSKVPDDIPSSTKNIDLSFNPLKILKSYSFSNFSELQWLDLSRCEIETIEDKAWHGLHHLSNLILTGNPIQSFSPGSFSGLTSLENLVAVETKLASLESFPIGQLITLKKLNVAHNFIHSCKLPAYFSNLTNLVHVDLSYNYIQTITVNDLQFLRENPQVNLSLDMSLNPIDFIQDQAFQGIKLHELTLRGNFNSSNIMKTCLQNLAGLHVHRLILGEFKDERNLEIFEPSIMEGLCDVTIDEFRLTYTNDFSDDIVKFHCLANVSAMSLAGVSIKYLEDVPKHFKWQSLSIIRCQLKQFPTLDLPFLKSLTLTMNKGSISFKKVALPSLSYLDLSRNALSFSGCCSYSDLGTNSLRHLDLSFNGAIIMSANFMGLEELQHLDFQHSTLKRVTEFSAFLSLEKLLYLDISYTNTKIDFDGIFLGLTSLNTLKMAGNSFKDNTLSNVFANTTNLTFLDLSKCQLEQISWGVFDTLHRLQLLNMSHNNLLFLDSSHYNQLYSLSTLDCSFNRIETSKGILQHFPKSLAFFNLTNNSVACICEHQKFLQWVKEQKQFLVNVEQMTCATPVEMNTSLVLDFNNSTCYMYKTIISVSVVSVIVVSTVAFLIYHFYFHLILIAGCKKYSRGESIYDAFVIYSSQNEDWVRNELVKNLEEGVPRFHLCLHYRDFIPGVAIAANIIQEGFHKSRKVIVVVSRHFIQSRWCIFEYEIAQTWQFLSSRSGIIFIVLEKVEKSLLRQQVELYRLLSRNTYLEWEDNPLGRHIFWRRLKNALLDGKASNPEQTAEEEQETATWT
T1 sequence (Q9JHF9 19-160): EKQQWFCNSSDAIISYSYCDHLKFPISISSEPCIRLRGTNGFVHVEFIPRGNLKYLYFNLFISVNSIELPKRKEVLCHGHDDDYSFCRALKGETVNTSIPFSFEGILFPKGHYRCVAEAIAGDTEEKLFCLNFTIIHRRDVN
Procedure: Wild-type C57BL/6J, TLR4^−/−, and TLR2^−/− peritoneal macrophages were pretreated with eritoran (10 ng/mL) for 1 hour and then treated with medium alone, LPS (20 ng/mL), P3C (300 ng/mL), or OxPAPC (20 μg/mL) and RNA expression was measured. Commercially obtained OxPAPC activated IL-6 gene expression in WT and TLR2^−/− mouse peritoneal macrophages, but not in cells from TLR4^−/− mice (FIG. 9). […] Data are means+/−s.e.m. from 1 experiment with samples done in triplicate (*p<0.001, #p<0.05).

PR8 [1] = experiment: Influenza-induced cytokine and interferon mRNA in lungs of PR8-infected mice (real-time PCR); assay type: in vivo; details: 200 μg/mouse i.v. starting on day 2
PR8 [2] = experiment: Survival of PR8-infected IFNβ−/− mice; assay type: in vivo; details: ~7500 TCID50 PR8; treated 2 days post-infection for 5 successive days
From the text: Wild-type and IFNβ^−/− mice were infected with ˜7500 TCID50 PR8 and were left either untreated (circles) or treated with eritoran 2 days post-infection, for 5 successive days (squares). (FIG. 11). Data represent the combined results of 2 separate experiments (6 mice per treatment per experiment; WT: untreated vs. eritoran treatment (p<0.0013); IFNβ^−/−: untreated v. eritoran treatment (p=ns).

PR8 [3] = experiment: Influenza-induced serum liver enzyme levels (ALT, AST) in PR8-infected mice; assay type: in vivo, C57BL/6J WT mice; details: 200 μg/mouse i.v. starting on day 2; serum day 7
Procedure: Mice infected i.n. with 50 μl of PR8 (˜7500 TCID50/mouse). Mice injected i.v. with 100 μl of eritoran (200 μg/mouse) starting on day 2 post-infection. Serum was collected on day 7 from C57BL/6J WT mice that were either mock-infected with saline or infected with PR8 and were either left untreated or were treated with eritoran starting on day 2 post-infection. Alanine aminotransaminase (ALT) and aspartate aminotransaminase (AST) were measured (Siemens Healthcare Diagnostics, Ltd.). […] Data represent 2 separate experiments with 4 mice per treatment per experiment.

PR8 [4] = experiment: Oxidized phospholipids in lungs of PR8-infected mice (MALDI-IMS); assay type: in vivo, mouse; details: PR8-infected mice with or without treatment
From the text: To assess the effect of eritoran on production of oxidized phospholipids during infection, MALDI-IMS was used to identify alterations in the lipid composition of mouse lungs after PR8, with or without eritoran treatment. […] (FIG. 10a). Results are representative of 4 replicate experiments. The structures of abundant phosphatidylcholine (PC) and predicted oxidized phosphatidylcholine (OxPC) molecules and molecular weights: 1-palmitoyl-2-linoleoyl PC (PLPC) m/z 757.6, 1-palmitoyl-2-arachadonyl PC (PAPC) m/z 782.1, and predicted structures of oxidized PC molecules and molecular weight, 1-palmitoyl-2-(9-oxo)nonanoyl PC (PONPC) m/z 649.4, (PEIPC) 1-palmitoyl-2-(5,6-epoxyisoprostance E2 oyl) PC m/z 828.1 are shown. (FIG. 10b).

PR8 [5] = experiment: Influenza-induced lung pathology in PR8-infected mice (H&E histology); assay type: in vivo; details: ~7500 TCID50 PR8; 200 μg/mouse i.v. starting on day 2; day 7 post-infection
Procedure: Mice were infected i.n. with 50 μl of PR8 (˜7500 TCID50/mouse). Mice were then injected i.v. with 100 μl of eritoran (200 μg/mouse) starting on day 2 post-infection. Mice were then sacrificed on day 7 post-infection (day […] post-eritoran treatment) and lungs harvested for lung pathology (4 mice/treatment group). Murine lungs were inflated and perfused and fixed with 4% PFA. Fixed sections (8 μm) of paraffin-embedded lungs were stained with hematoxylin and eosin (H&E). Slides were randomized, read blindly, and examined for tissue damage, necrosis, apoptosis, and proinflammatory cellular infiltration. […] Pulse oximetry measurements were performed to confirm these observations.

[6] = tested on: A/California/07/2009, H1N1; experiment: Direct antiviral effect: virus titration in MDCK cells
PR8 [7] = experiment: Lung viral titers in PR8-infected mice; assay type: in vivo; details: ~7500 TCID50 PR8, 200 μg/mouse i.v. starting on day 2

## CCCCCC/C=C\CCCCCCCCCC(=O)N[C@H]1[C@H](OC[C@H]2O[C@H](OP(=O)(O)O)[C@H](NC(=O)CC(=O)CCCCCCCCCCC)[C@@H](OCCCCCCCCCC)[C@@H]2O)O[C@H](COC)[C@@H](OP(=O)(O)O)[C@@H]1OCC[C@@H](CCCCCCC)OC [eritoran, α-D-Glucopyranose, 3-O-decyl-2-deoxy-6-O-[2-deoxy-3-O-[(3R)-3-methoxydecyl)-6-O-methyl-2-[[(-11Z)-1-oxo-11-octadecenyl)amino]-4-O-phosphono-β-D-glucopyranosyl]-2-[(1,3-dioxotetradecyl)amino]-1-(dihydrogen phosphate)]
influenza
  protection (survival) in TLR2−/− or CD14−/− mice: ineffective at inducing protection
TLR4
  TLR4-dependent cell activation by OxPAPC (IL-6 gene expression): substantially inhibited
PR8 [1]; days 2, 4, 6 post-infection
  cytokine gene expression in lung: significantly reduced cytokine gene expression at each time point
PR8 [1]; depends on interferon species
  interferon production (mRNA) in lung: variable levels of interferon production compared to control mice
PR8 [2]
  protection (survival) in IFNβ−/− mice: does not induce protection
PR8 [3]
  liver enzyme levels (ALT, AST) in serum: lower levels of liver enzymes post-infection
PR8 [4]
  oxidation products of phospholipids in lung: detected in greater abundance and intensity in PR8-infected versus mice that were treated with eritoran
PR8 [5]
  lung sections nearly normal: ~80 % of lung sections
  lung sections showing inflammatory infiltrates: ~20 % of lung sections
[6]; Experiment 1, 10 ng/mL applied 1 hour prior to virus
  Titer: 1.0 × 10^6 TCID50/ml
[6]; Experiment 1, 10 ng/mL applied at the same time as virus
  Titer: 3.1 × 10^6 TCID50/ml
[6]; Experiment 2, 10 ng/mL applied 1 hour prior to virus
  Titer: 3.4 × 10^5 TCID50/ml
[6]; Experiment 2, 10 ng/mL applied at the same time as virus
  Titer: 6.3 × 10^6 TCID50/ml
PR8 [7]; day 7 post-infection
  lung viral titers on day 7: further decreased
PR8 [7]; lungs harvested days 2, 4, 6
  lung viral titers: statistically significant decrease in lung viral titers
